The values that follow come from patent US9522128B2 (FUNDACION PARA LA INVESTIGACION BIOMEDICA DEL HOSPITAL …, priority 2008, dated 2016).

Like-named read-outs stand apart in the source and are kept apart here. Some results are limits rather than exact numbers.

The conditions of data set [1]: cited from earlier work; for nature (neutral, anionic, apolar) at physiological pH: 7 or close to 7.
Data set [2] concerns primary cultures of proximal tubular cells (PTCs). Description: Cell growth dynamics in primary culture of proximal tubular cells.
The subject of data set [3] is cells of pig proximal tubular epithelium in primary culture.
Data set [4] concerns rabbits. To be noted: rabbit, in vivo; cited from earlier work.
The subject of data set [5] is cultures of cells of the proximal tubular epithelium. Kind of data set: Scanning electron microscopy of cell morphology. To be noted: 11 days; cyclosporin A 1 μg/mL without or with cilastatin 200 μg/mL.
Data set [6] concerns CD3+ lymphocytes (human T cells). The conditions noted are these: cyclosporin A at different doses. As to the method:
The sample was centrifuged at 120 g and was resuspended in 750 μL of RPMI medium (in the absence of FCS: fetal calf serum) to quantify the number of cells available using trypan blue. One hundred thousand cells per point were distributed.
Incubation was performed for 4 hours at 37° C. Cells were centrifuged for 6 minutes at 1200 rpm. The precipitate was resuspended in 100 μL of buffer (10 mmol/L HEPES, 150 mmol/L NaCl, 5 mmol/L KCl, 1 mmol/L Mg Cl2, 1.8 mmol/L CaCl2) and 5 μL of annexin-V. It was incubated in the dark for 10 minutes.
Intensity of green fluorescence of cells was quantified as displacement in the logarithmic scale from control (cells growing in 10% FCS) versus the number of cells analyzed. Cell debris was excluded from the analysis.

In the case of `CC(=O)Nc1ccc(O)cc1` [Acetaminophen, N-(4-hydroxyphenyl)ethanamide], the “SOLUBILITY IN WATER” value in data set [1] (in words) is “moderately soluble in”. In addition, the “SOLUBILITY IN ORGANIC MEDIA” value in data set [1] (in words, in ethanol and acetone) is “soluble in ethanol and acetone”; in data set [1] (in words, in serum) it was “insoluble in serum”. In addition, the “nature (neutral, anionic, apolar) at physiological pH” value (“nature … at physiological pH” below) in data set [1] is given as “neutral”.

`C[C@@H]1[C@H](O)[C@@H](C)/C=C/C=C/C=C/C=C/C=C/C=C/C=C/[C@H](O[C@@H]2O[C@H](C)[C@@H](O)[C@H](N)[C@@H]2O)C[C@@H]2O[C@](O)(C[C@@H](O)C[C@@H](O)[C@H](O)CC[C@@H](O)C[C@@H](O)CC(=O)O[C@H]1C)C[C@H](O)[C@H]2C(=O)O` [Amphotericin B]: the “SOLUBILITY IN ORGANIC MEDIA” value was “DMF + HCl (60-80 mg/mL)” in data set [1] (DMF + HCl), “soluble in DMF (2-4 mg/mL),” in data set [1] (DMF) and “DMSO (30-40 mg/mL)” in data set [1] (DMSO). The “nature … at physiological pH” value in data set [1] was “anionic”. Also, the “SOLUBILITY IN WATER” value in data set [1] (water at pH 2 or pH 11) is reported as 11 (0.1 mg/mL).

`ClC(Cl)Cl` [Chloroform, CHCl3]: the “nature … at physiological pH” value in data set [1] is “apolar”.

On to `N.N.[Cl][Pt][Cl]` [Cisplatin, cis-diaminodychloroplatin II], for which, in data set [1], the “nature … at physiological pH” value is recorded as “neutral”.

In the case of `O=C(O)P(=O)(O)O` [Foscarnet, phosphonoformic acid], in data set [1] (in words), the “SOLUBILITY IN ORGANIC MEDIA” value is “insoluble” and the “SOLUBILITY IN WATER” value is recorded as “soluble in water”. For the same compound, in data set [1], the “nature … at physiological pH” value is “anionic”.

`C[C@H](O)C(=O)Nc1c(I)c(C(=O)NC(CO)CO)c(I)c(C(=O)NC(CO)CO)c1I` [Iopamidol]: in data set [1] (in words), the “SOLUBILITY IN ORGANIC MEDIA” value is reported as “soluble in methanol insoluble” and the “SOLUBILITY IN WATER” value is on record as “soluble in water”. The “nature … at physiological pH” value in data set [1] was “anionic”.

Consider `OC[C@@H](O)[C@@H](O)[C@H](O)[C@H](O)CO` [Mannitol], for which, in data set [1], the “SOLUBILITY IN WATER” value was “(1 g/5.5 mL)” and the “nature … at physiological pH” value is “anionic”. For the same compound, the “SOLUBILITY IN WATER” value in data set [1] (in words) is “soluble in water”.

On to `C=CC[C@@H]1/C=C(\C)C[C@H](C)C[C@H](OC)[C@H]2O[C@@](O)(C(=O)C(=O)N3CCCC[C@H]3C(=O)O[C@H](/C(C)=C/[C@@H]3CC[C@@H](O)[C@H](OC)C3)[C@H](C)[C@@H](O)CC1=O)[C@H](C)C[C@@H]2OC.O` [Tacrolimus], for which, in data set [2] (from the time of seeding, cyclosporin A 1 or 10 μg/mL, tacrolimus 50 ng/mL), the “cell growth in the presence of the nephrotoxic” value is listed as “dose-dependently reduced”. Moreover, in data set [2] (post hoc analysis, cyclosporin 1 μg/mL and 10 μg/mL, tacrolimus (FK-506)), the “day of culture from which cell growth is significantly decreased compared to control” value is no less than 7 days. In addition, in data set [1] (in words), the “SOLUBILITY IN ORGANIC MEDIA” value is “high” and the “SOLUBILITY IN WATER” value was “insoluble”. Besides, the “nature … at physiological pH” value in data set [1] is “apolar”.

On to `CN[C@H](CC(C)C)C(=O)NC1C(=O)N[C@@H](CC(N)=O)C(=O)N[C@H]2C(=O)N[C@H]3C(=O)N[C@H](C(=O)N[C@@H](C(=O)O)c4cc(O)cc(O)c4-c4cc3ccc4O)[C@H](O)c3ccc(c(Cl)c3)Oc3cc2cc(c3OC2O[C@@H](CO)[C@@H](O)[C@H](O)[C@@H]2O[C@@H]2C[C@](C)(N)[C@H](O)[C@@H](C)O2)Oc2ccc(cc2Cl)[C@H]1O` (stereo partly drawn) [Vancomycin], for which the “SOLUBILITY IN WATER” value in data set [1] (in words) is given as “water-soluble”; in data set [1] (in words, listed as VANCOMYCIN), “high”.

For the compound `CCCCC[C@@H](O)[C@H]1C(=O)O[C@H](C)[C@@H](O)/C=C/C=C/C=C/C=C/C=C(\C)[C@@H](O)C[C@H](O)C[C@H](O)C[C@H](O)C[C@H](O)C[C@H](O)C[C@@H]1O` [filipin], the cell death entry in data set [3] is “causes cell death in a short time”. Moreover, the “internalization of fluorescent toxin B labeled caveolae from cell membrane to Golgi apparatus” value in data set [3] ([…], cilastatin 200 μg/mL or filipin 50 μg/mL, pre-incubated 20 minutes) is reported as “prevents their internalization”.

`C[C@@H](O)[C@H]1C(=O)N2C(C(=O)O)=C(SCCN=CN)C[C@H]12` [imipenem]: in data set [4], the tubular toxicity entry was “may cause tubular toxicity”.

As for Cyclosporin A, the “cell morphology by scanning electron microscopy” value in data set [5] is “causes cytosolic condensation, cell rupture, and monolayer disruption”. Besides, in data set [6], the “percent cell death of human T cells” value is “dose-response effect of the lethal effect”.

Regarding Gentamicin, the “nature … at physiological pH” value in data set [1] is reported as “neutral”.
